{"source": "patent US8685658B2", "about": "“Compositions and methods for the treatment of diseases associated with aberrant cilia assembly and regulation” (Fox Chase Cancer Center, priority 2006, dated 2014)", "molecules": {"B1": {"name": "recombinant activated AurA (Upstate) (protein)", "chain": "MDRSKENCISGPVKATAPVGGPKRVLVTQQFPCQNPLPVNSGQAQRVLCPSNSSQRIPLQAQKLVSSHKPVQNQKQKQLQATSVPHPVSRPLNNTQKSKQPLPSAPENNPEEELASKQKNEESKKRQWALEDFEIGRPLGKGKFGNVYLAREKQSKFILALKVLFKAQLEKAGVEHQLRREVEIQSHLRHPNILRLYGYFHDATRVYLILEYAPLGTVYRELQKLSKFDEQRTATYITELANALSYCHSKRVIHRDIKPENLLLGSAGELKIADFGWSVHAPSSRRTTLCGTLDYLPPEMIEGRMHDEKVDLWSLGVLCYEFLVGKPPFEANTYQETYKRISRVEFTFPDFVTEGARDLISRLLKHNPSQRPMLREVLEHPWITANSSKPSNCQNKESASKQS"}, "B2": {"name": "D274N: D274N AurA, an inactive mutant (protein, UniProt O14965 1-403, looked up, variant D274N)", "Aurora kinase A": "B1 chain with D274N"}, "B3": {"name": "T288A: T288A AurA, a hypomorphic mutant (protein, UniProt O14965 1-403, looked up, variant T288A)", "Aurora kinase A": "B1 chain with T288A"}}, "key": {"hTERT-RPE1 cells [1]": {"tested_on": "hTERT-RPE1 cells", "assay": "serum-induced ciliary disassembly in ciliated hTERT-RPE1 cells", "assay_type": "cell-based", "conditions": "compounds added 2 hours prior to induction; tubacin and niltubacin 2 μM, GSK3 inhibitor 2 μM, FTI-277 50 nM", "experimental": "hTERT-RPE1 cells were grown in DMEM with 10% fetal bovine serum (FBS). For analysis of ciliary disassembly, cells were plated at 30% confluence in plates containing glass cover slips, and starved for 48 hours (in Opti-MEM or regular DMEM, without added serum) to induce cilia formation, followed by treatments described hereinbelow. For siRNA treatment, cells were initially plated in DMEM/10% FBS in plates containing cover slips, and 12 hours later siRNA transfection was performed in Opti-MEM with Oligofectamine (Invitrogen) according to manufacturer recommendations, and fixed 48 hours after transfection, following treatments indicated in Results. The remaining cells on plate were lysed, then either directly analyzed by Western blot analysis, or used for immunoprecipitation (IP)-kinase reaction to measure AurA activity.\nCells were fixed with 4% paraformaldehyde (10 min) then methanol (5 min), permeabilized with 1% Triton-X100 in PBS, blocked in 1×PBS, 3% BSA, and incubated with antibodies using standard protocols. Primary antibodies included rabbit polyclonal anti-Aurora A and anti-phospho-AuroraA/T288, (Cell Signaling), mouse mAb anti-HEF1 (14A11), polyclonal anti-γ-tubulin (Sigma), anti-α-tubulin mAb (Sigma), anti-acetylated α-tubulin mAb (clone 6-11B-1, Sigma, and clone K(Ac)40 Biomol), anti-IFT88 and anti-IFT20 (gifts of G. Pazour), mouse anti-glutamylated tubulin (Sigma), and anti-HDAC6 (Upstate). Secondary antibodies labeled with Alexa-488, Alexa-568, and Alexa-633, and TOTO-3 dye to stain DNA, were from Molecular Probes/Invitrogen. DNA was co-stained in some experiments by propidium iodine (Sigma) or Draq5 (Alexis), Confocal microscopy was performed using a Radiance 2000 laser scanning confocal microscope ((Carl Zeiss, Thornwood, N.Y.) coupled to a Nikon Eclipse E800 upright microscope (Nikon). Statistical analysis of data by one-way ANOVA was performed using GraphPad Instat 3.0 (San Diego, Calif.)."}, "acetylated tubulin": {"tested_on": "acetylated tubulin", "assay": "intracellular levels of acetylated tubulin (Western blot)", "assay_type": "cell-based", "conditions": "vs DMSO vehicle", "experimental": "(§1) For microinjection, recombinant glutathione-S-transferase (GST), GST fused AurA mutants T288A and D274N) produced from BL21 (DE3) bacteria were purified using the MicroSpin GST Purification Module (Amersham Biotech.). Purified recombinant AurA was purchased from Upstate; this AurA was pre-activated based on incubation with ATP. […] To prepare lysates for Western blotting and IP, mammalian cells were disrupted by M-PER lysis buffer (Pierce) supplemented with EDTA-free protease inhibitor cocktail (Roche). Lysates used for IP were incubated overnight with antibody at 4° C., subsequently incubated for 2 hours with protein A/G-sepharose (Pierce), washed, and resolved by SDS-PAGE. Western blotting was performed using standard procedures and proteins visualized using the West-Pico system (Pierce). Antibodies used included mouse monoclonal antibody (mAb) anti-HEF1 2G9 (Pugacheva and Golemis, 2005), anti-α-tubulin mAb (Sigma), anti-AurA (BD Bioscience) for Western blotting, anti-AurA rabbit polyclonal (Cell Signaling) for IP, anti-Phospho-AurA/T288 (BioLegend), anti-Phospho-AurA/T288 (Cell Signaling), anti-HDAC6 rabbit polyclonal (Upstate; 1:5000), anti-HDAC2 rabbit polyclonal (Invitrogen) and mAb anti-β-actin (AC15, Sigma), anti-IFT88 and anti-IFT20. Secondary horseradish peroxidase (HRP)-conjugated antibodies were from Amersham Biotech."}, "hTERT-RPE1 cells [2]": {"tested_on": "hTERT-RPE1 cells", "assay": "FACS cell cycle profile after serum stimulation", "assay_type": "cell-based"}, "hTERT-RPE1 cells [3]": {"tested_on": "hTERT-RPE1 cells", "assay": "loss of cilia after microinjection of AurA proteins into ciliated hTERT-RPE1 cells", "assay_type": "cell-based", "experimental": "as §1\nMicroinjections were performed on a Nikon TE300 Microscope (Nikon, Melville, N.Y.) that was equipped with an Eppendorf Transjector 5246 semi-automatic microinjector and micromanipulator (Eppendorf, Westbury, N.Y.). […] Proteins were pre-filtered through a 0.2-μm Milliopore membrane and mixed with Dextran Green488 (Molecular Probes) to mark injected cells. Injected cells were incubated at 37° C. before fixation. Typically, 150 cells were microinjected in each of 3 experiments."}, "hTERT-RPE1 cells [4]": {"tested_on": "hTERT-RPE1 cells", "assay": "growth factor-induced disassembly of cilia in hTERT-RPE1 cells", "assay_type": "cell-based", "conditions": "10 ng/ml", "experimental": "FIG. 4. Growth factor-induced disassembly of cilia in hTERT-RPE1 cells. A. Time course of disassembly of cilia in cells treated with EGF, PDGF, and TGF-β. […] B. Western blot indicating T288-phosphorylated and total AurA in cells treated with PDGF or EGF, at times indicated after treatment. C. Immunofluorescence depicting cilia (red, acetylated a α-tubulin) and phospho-AurA (green) staining at the basal body at 2 hours after stimulation with PDGF, EGF, or serum. Phosphorylated AurA is apparent in PDGF- and serum-treated cells, but not EGF-treated cells: further, many well-formed cilia are apparent in EGF-treated cells (marked with asterisks) in contrast to other conditions. Scale bar represents […].\nhTERT-RPE1 cells were grown in DMEM with 10% fetal bovine serum (FBS). For analysis of ciliary disassembly, cells were plated at 30% confluence in plates containing glass cover slips, and starved for 48 hours (in Opti-MEM or regular DMEM, without added serum) to induce cilia formation, followed by treatments described hereinbelow. […] The remaining cells on plate were lysed, then either directly analyzed by Western blot analysis, or used for immunoprecipitation (IP)-kinase reaction to measure AurA activity."}, "[5]": {"target": "T1, in vitro translated and immunoprecipitated HDAC6, Q9UBN7", "T1 chain": "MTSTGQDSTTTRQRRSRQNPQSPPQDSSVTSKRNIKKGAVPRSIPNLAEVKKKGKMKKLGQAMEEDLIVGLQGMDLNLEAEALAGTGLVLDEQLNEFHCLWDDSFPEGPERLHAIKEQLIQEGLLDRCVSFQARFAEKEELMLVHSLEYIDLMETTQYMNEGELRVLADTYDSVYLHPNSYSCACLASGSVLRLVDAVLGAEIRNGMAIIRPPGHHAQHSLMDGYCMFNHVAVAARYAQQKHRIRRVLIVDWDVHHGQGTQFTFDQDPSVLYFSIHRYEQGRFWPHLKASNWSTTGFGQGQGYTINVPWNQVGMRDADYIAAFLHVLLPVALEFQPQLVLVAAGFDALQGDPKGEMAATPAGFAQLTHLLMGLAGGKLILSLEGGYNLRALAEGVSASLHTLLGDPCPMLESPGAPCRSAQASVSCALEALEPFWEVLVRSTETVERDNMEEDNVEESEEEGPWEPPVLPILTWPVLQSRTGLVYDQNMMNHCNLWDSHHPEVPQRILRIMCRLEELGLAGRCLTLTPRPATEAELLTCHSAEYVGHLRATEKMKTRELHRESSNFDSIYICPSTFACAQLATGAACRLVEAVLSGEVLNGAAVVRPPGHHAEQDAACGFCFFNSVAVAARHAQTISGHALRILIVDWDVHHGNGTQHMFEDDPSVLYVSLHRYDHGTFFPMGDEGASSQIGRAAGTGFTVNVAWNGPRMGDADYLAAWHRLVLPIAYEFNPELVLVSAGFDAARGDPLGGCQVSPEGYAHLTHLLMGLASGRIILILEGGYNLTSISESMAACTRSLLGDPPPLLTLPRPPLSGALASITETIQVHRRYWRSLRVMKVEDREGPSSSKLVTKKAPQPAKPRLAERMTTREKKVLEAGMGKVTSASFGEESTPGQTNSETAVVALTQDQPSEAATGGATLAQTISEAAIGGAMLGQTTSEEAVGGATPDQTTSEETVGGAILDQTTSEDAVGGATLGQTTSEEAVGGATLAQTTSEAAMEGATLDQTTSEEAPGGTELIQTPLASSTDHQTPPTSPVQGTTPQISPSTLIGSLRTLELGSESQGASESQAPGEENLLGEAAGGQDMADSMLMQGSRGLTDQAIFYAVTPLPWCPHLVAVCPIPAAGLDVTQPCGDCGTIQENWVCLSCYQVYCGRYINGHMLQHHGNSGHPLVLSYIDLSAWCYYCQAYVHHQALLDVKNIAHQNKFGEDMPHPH"}, "[6]": {"target": "recombinant glutathione-S-transferase (GST)"}, "[7]": {"conditions": "0.05 μM protein microinjected, low serum medium"}}, "note": "Where a chain is given by its changes, count along the chain named. Names and notes keep the numbering of the source."}
{"molecule": "COC(=O)[C@H](CCSC)NC(=O)c1ccc(NC[C@@H](N)CS)cc1-c1ccccc1", "note": "[FTI]", "values": [{"measurement": "serum-induced ciliary disassembly", "setting": "hTERT-RPE1 cells [1]", "result": "do not inhibit"}]}
{"molecule": "O=C(O)CCCCCCC(=O)Nc1ccc([C@H]2O[C@@H](CSc3nc(-c4ccccc4)c(-c4ccccc4)o3)C[C@@H](c3ccc(CO)cc3)O2)cc1", "note": "[niltubacin]", "values": [{"measurement": "levels of acetylated tubulin in treated cells", "setting": "acetylated tubulin", "result": "not"}, {"measurement": "serum-induced ciliary disassembly", "setting": "hTERT-RPE1 cells [1]", "result": "no effect"}]}
{"molecule": "CC(/C=C/C(=O)NO)=C\\[C@@H](C)C(=O)c1ccc(N(C)C)cc1", "note": "[trichostatin A (TSA), trichostatin A]", "values": [{"measurement": "levels of acetylated tubulin in treated cells", "setting": "acetylated tubulin", "result": "increased"}, {"measurement": "serum-induced ciliary disassembly", "setting": "hTERT-RPE1 cells [1]", "result": "completely blocked"}]}
{"molecule": "O=C(CCCCCCC(=O)Nc1ccc([C@H]2O[C@@H](CSc3nc(-c4ccccc4)c(-c4ccccc4)o3)C[C@@H](c3ccc(CO)cc3)O2)cc1)NO", "note": "[tubacin]", "values": [{"measurement": "cell cycle profile at 2 h after serum stimulation", "setting": "hTERT-RPE1 cells [2]; 2 h", "result": "neither tubacin treatment nor siRNA to HDAC6 influenced cell cycle profile"}, {"measurement": "cell cycle profile at the later time point after serum stimulation", "setting": "hTERT-RPE1 cells [2]; later time point (18-24 h)", "result": "accumulation in G2"}, {"measurement": "ability of microinjected AurA to disassemble cilia", "setting": "hTERT-RPE1 cells [3]; cells pre-treated for 3 hours with tubacin before aAurA microinjection", "result": "substantially limited"}, {"measurement": "levels of acetylated tubulin in treated cells", "setting": "acetylated tubulin", "result": "increased"}, {"measurement": "serum-induced ciliary disassembly", "setting": "hTERT-RPE1 cells [1]", "result": "completely blocked"}]}
{"molecule": "PDGF", "values": [{"measurement": "ciliary disassembly response to growth factor", "setting": "hTERT-RPE1 cells [4]", "result": "partial response"}]}
{"molecule": "B1", "values": [{"measurement": "injected cells lacking cilia", "setting": "hTERT-RPE1 cells [3]; 0.05 μM protein microinjected, low serum medium, as soon as cells could be fixed", "result": "more than 80%"}, {"measurement": "in vitro tubulin deacetylation assay", "setting": "[5]", "result": "AurA-phosphorylated HDAC6 was much more potent than unphosphorylated HDAC6 in deacetylating α-tubulin"}, {"measurement": "in vitro kinase assay (32P autoradiography)", "setting": "[6]", "result": "AurA phosphorylated HDAC6, but not HDAC2 or the GST negative control"}]}
{"molecule": "B2", "values": [{"measurement": "loss of cilia after microinjection", "setting": "hTERT-RPE1 cells [3]; [7]", "result": "did not induce loss of cilia"}]}
{"molecule": "B3", "values": [{"measurement": "loss of cilia after microinjection", "setting": "hTERT-RPE1 cells [3]; [7]", "result": "eventual partial loss of cilia"}]}
